Test results reported in patent US11970473B2, “Nootkatone derivatives and methods of using the same” (Arkansas State University—Jonesboro, priority 2021, dated 2024).
Converted amounts (≈) assume the structure as drawn.

What was measured:
[1] = tested on: B. subtilis ATCC 6623 (Bs); assay: Minimal inhibitory concentration (MIC) assay; type: cell-based; conditions: Bacillus subtilis, ATCC6623; B. subtilis ATCC 6623; read-out: Antimicrobial activity (MIC) Bs
In short: (§1)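 CLSI broth microdilution; top concentration 50 μg/ml, 2-fold serial dilution; n = 3 replicates.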

[2] = tested on: Enterococcus faecalis ATCC 29212 (Es12); assay: Minimal inhibitory concentration (MIC) assay; type: cell-based; conditions: ATCC29212; Enterococcus faecalis ATCC 29212; read-out: Antimicrobial activity (MIC) Es12
In short: as §1

[3] = tested on: Enterococcus faecium ATCC 700221 (Em21); assay: Minimal inhibitory concentration (MIC) assay; type: cell-based
In short: as §1

[4] = tested on: S. aureus ATCC 25923 (Sa23); assay: Minimal inhibitory concentration (MIC) assay; type: cell-based; conditions: Staphylococcus aureus, ATCC25923; S. aureus ATCC 25923, antibiotic susceptible strain; read-out: Antimicrobial activity (MIC) Sa23
In short: as §1

[5] = tested on: S. aureus ATCC 33591 (Sa91); assay: Minimal inhibitory concentration (MIC) assay; type: cell-based; conditions: Staphylococcus aureus, ATCC33591; S. aureus ATCC 33591, antibiotic-resistant strain; read-out: Antimicrobial activity (MIC) Sa91
In short: as §1

[6] = tested on: S. aureus ATCC 33592 (Sa92); assay: Minimal inhibitory concentration (MIC) assay; type: cell-based; conditions: Staphylococcus aureus, ATCC33592; S. aureus ATCC 33592, antibiotic-resistant strain; read-out: Antimicrobial activity (MIC) Sa92
In short: as §1

[7] = tested on: S. aureus ATCC 700699 (Sa99); assay: Minimal inhibitory concentration (MIC) assay; type: cell-based; conditions: Staphylococcus aureus, ATCC700699; S. aureus ATCC 700699, antibiotic-resistant strain; read-out: Antimicrobial activity (MIC) Sa99
In short: as §1

[8] = tested on: S. aureus BAA-2312 (Sa12); assay: Minimal inhibitory concentration (MIC) assay; type: cell-based; conditions: Staphylococcus aureus, BAA2312; S. aureus BAA-2312, antibiotic-resistant strain; read-out: Antimicrobial activity (MIC) Sa12
In short: as §1

[9] = tested on: S. epidermidis 700296 (Se); assay: Minimal inhibitory concentration (MIC) assay; type: cell-based; conditions: Staphylococcus epidermidis, S. epidermidis 700296; read-out: Antimicrobial activity (MIC) Se
In short: as §1

S. aureus strains = assay: MIC, summary over S. aureus strains; type: cell-based; conditions: Staphylococcus aureus; lowest MIC over S. aureus strains; read-out: minimum inhibitory concentration (MIC) value as low as
Method: Minimal inhibitory concentration (MIC) assay The standard microdilution method recommended by the Clinical and Laboratory Standards Institute (CLSI) was used to determine the MIC of the antibiotics. The starting concentration of compounds was 50 μg/ml and 2-fold dilution was done down the 96 honeycomb well plate column. The MIC assay was conducted in triplicates.

NCI-60 cancer cell lines = assay: NCI-60 cancer screen (whole panel); type: cell-based, human; conditions: 10 μM
CCRF-CEM = assay: NCI-60 cancer screen; type: cell-based, human; conditions: Leukemia, 10 μM
HL-60(TB) = assay: NCI-60 cancer screen; type: cell-based, human; conditions: Leukemia, 10 μM
SR = assay: NCI-60 cancer screen; type: cell-based, human; conditions: Leukemia, 10 μM
A549/ATCC = assay: NCI-60 cancer screen; type: cell-based, human; conditions: Non-Small Cell Lung Cancer, 10 μM
EKVX = assay: NCI-60 cancer screen; type: cell-based, human; conditions: Non-Small Cell Lung Cancer, 10 μM
HOP-62 = assay: NCI-60 cancer screen; type: cell-based, human; conditions: HOP-62, Non-Small Cell Lung Cancer; 10 μM
NCI-H322M = assay: NCI-60 cancer screen; type: cell-based, human; conditions: Non-Small Cell Lung Cancer, 10 μM
COLO 205 = assay: NCI-60 cancer screen; type: cell-based, human; conditions: COLO 205, Colon Cancer; 10 μM
HCT-15 = assay: NCI-60 cancer screen; type: cell-based, human; conditions: HCT-15, Colon Cancer; 10 μM
KM12 = assay: NCI-60 cancer screen; type: cell-based, human; conditions: KM12, Colon Cancer; 10 μM
SF-268 = assay: NCI-60 cancer screen; type: cell-based, human; conditions: SF-268, CNS Cancer; 10 μM
SF-295 = assay: NCI-60 cancer screen; type: cell-based, human; conditions: SF-295, CNS Cancer; 10 μM
SNB-19 = assay: NCI-60 cancer screen; type: cell-based, human; conditions: SNB-19, CNS Cancer; 10 μM
U251 = assay: NCI-60 cancer screen; type: cell-based, human; conditions: U251, CNS Cancer; 10 μM
LOX IMVI = assay: NCI-60 cancer screen; type: cell-based, human; conditions: Melanoma, 10 μM
UACC-62 = assay: NCI-60 cancer screen; type: cell-based, human; conditions: UACC-62, Melanoma; 10 μM
OVCAR-4 = assay: NCI-60 cancer screen; type: cell-based, human; conditions: OVCAR-4, Ovarian Cancer; 10 μM
SK-OV-3 = assay: NCI-60 cancer screen; type: cell-based, human; conditions: SK-OV-3, Ovarian Cancer; 10 μM
786-0 = assay: NCI-60 cancer screen; type: cell-based, human; conditions: 786-0, Renal Cancer; 10 μM
SN12C = assay: NCI-60 cancer screen; type: cell-based, human; conditions: Renal Cancer, 10 μM
PC-3 = assay: NCI-60 cancer screen; type: cell-based, human; conditions: PC-3, Prostate Cancer; 10 μM
DU-145 = assay: NCI-60 cancer screen; type: cell-based, human; conditions: DU-145, Prostate Cancer; 10 μM
T-47D = assay: NCI-60 cancer screen; type: cell-based, human; conditions: Breast Cancer, 10 μM

For `C=C(C)[C@@H]1CC=C2c3sc(-c4ccc(O)cc4)nc3C[C@@H](C)[C@]2(C)C1` [Compound 15, 4-[(5R,5aS,7R)-7-isopropenyl-5,5a-dimethyl-5,6,7,8-tetrahydro-4H-benzo[g][1,3]benzothiazol-2-yl]phenol], which MIC [1] is on record?
The MIC was 6.25 µg/mL (≈ 17.8 µM).

And the MIC [2]?
The MIC was 12.5 µg/mL (≈ 35.6 µM).

And the “Antimicrobial activity (MIC) Em21” value ([3]; Enterococcus faecium ATCC 700221)?
Its value is 3.12 µg/mL.

What about the MIC ([3]; Enterococcus faecium, ATCC700221, Enterococcus faecium ATCC 700221, read-out: Antimicrobial activity (MIC) Em21) of the same compound?
Its MIC is 3.12 µg/mL (≈ 8.89 µM).

And the MIC [4]?
The MIC was over 100 µg/mL.

What about the MIC [5] of the same compound?
The MIC was 6.2 µg/mL (≈ 17.6 µM).

And the MIC [6]?
Its MIC is 6.25 µg/mL (≈ 17.8 µM).

What about the MIC [7] of the same compound?
The MIC was 12.5 µg/mL (≈ 35.6 µM).

And the MIC [8]?
The MIC was 12.5 µg/mL (≈ 35.6 µM).

What about the MIC [9] of the same compound?
The MIC was 6.25 µg/mL (≈ 17.8 µM).

And the MIC (S. aureus strains)?
Its MIC is 6.25 µg/mL (≈ 17.8 µM).

And the “Growth Percent, Delta” value (NCI-60 cancer cell lines; delta over panel)?
Its value is 16.54%.

And the “Growth Percent, Mean” value (NCI-60 cancer cell lines; mean over panel)?
Its value is 100.94%.

And the “Growth Percent, Range” value (NCI-60 cancer cell lines; range over panel)?
Its value is 34.01%.

And the “Growth Percent” value (CCRF-CEM)?
Its value is 99.49%.

And the “Growth Percent” value (HL-60(TB))?
The value was 100.82%.

What about the “Growth Percent” value (SR) of the same compound?
The value was 113.66%.

And the “Growth Percent” value (A549/ATCC)?
The value was 95.55%.

What about the “Growth Percent” value (EKVX) of the same compound?
The value was 101.37%.

And the “Growth Percent” value (HOP-62)?
Its value is 95.96%.

And the “Growth Percent” value (NCI-H322M)?
The value was 102.27%.

What about the “Growth Percent” value (COLO 205) of the same compound?
Its value is 118.41%.

And the “Growth Percent” value (HCT-15)?
The value was 100.28%.

And the “Growth Percent” value (KM12)?
The value was 103.49%.

And the “Growth Percent” value (SF-268)?
The value was 100.98%.

And the “Growth Percent” value (SF-295)?
Its value is 92.61%.

And the “Growth Percent” value (SNB-19)?
Its value is 93.47%.

What about the “Growth Percent” value (U251) of the same compound?
The value was 102.73%.

And the “Growth Percent” value (LOX IMVI)?
Its value is 101.88%.

What about the “Growth Percent” value (UACC-62) of the same compound?
The value was 93.02%.

What about the “Growth Percent” value (OVCAR-4) of the same compound?
The value was 95.29%.

And the “Growth Percent” value (SK-OV-3)?
The value was 109.13%.

And the “Growth Percent” value (786-0)?
Its value is 101.31%.

And the “Growth Percent” value (SN12C)?
The value was 94.92%.

What about the “Growth Percent” value (PC-3) of the same compound?
Its value is 94.38%.

What about the “Growth Percent” value (DU-145) of the same compound?
The value was 104.97%.

What about the “Growth Percent” value (T-47D) of the same compound?
The value was 84.40%.
